PubChem BioAssay (NCI)
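Results reflect a 48-hour exposure of cells in 96-well plates to compound at five concentrations. Abbreviation: GI50, concentration required for 50% inhibition of growth. Definition used: TGI = concentration required for complete inhibition of growth.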

What was measured:
Assay in all cases: NCI tumour cell line growth inhibition, 48 h
SN12C renal = system: SN12C renal
OVCAR-8 ovarian = system: OVCAR-8 ovarian
A498 renal = system: A498 renal
MDA-MB-435 = system: MDA-MB-435
RXF 393 renal = system: RXF 393 renal
HCC-2998 colon = system: HCC-2998 colon
NCI-H522 lung = system: NCI-H522 lung
PC-3 prostate = system: PC-3 prostate
OVCAR-5 ovarian = system: OVCAR-5 ovarian
LOX IMVI melanoma = system: LOX IMVI melanoma

Row | Compound | TGI (SN12C renal) | TGI (OVCAR-8 ovarian) | TGI (A498 renal) | TGI (MDA-MB-435) | TGI (RXF 393 renal) | TGI (HCC-2998 colon) | TGI (NCI-H522 lung) | TGI (PC-3 prostate) | TGI (OVCAR-5 ovarian) | TGI (LOX IMVI melanoma) | GI50 (SN12C renal) | GI50 (OVCAR-8 ovarian) | GI50 (A498 renal) | GI50 (MDA-MB-435) | GI50 (RXF 393 renal) | GI50 (HCC-2998 colon) | GI50 (NCI-H522 lung) | GI50 (PC-3 prostate) | GI50 (OVCAR-5 ovarian) | GI50 (LOX IMVI melanoma)
1 | O=C1C=C(Nc2nc(C(=O)O)cc(=O)[nH]2)c2ccccc2C1=O | > 100 µM | > 100 µM | > 100 µM | > 100 µM | > 100 µM | > 100 µM | > 100 µM | > 100 µM | > 100 µM | > 100 µM | – | – | – | – | – | – | – | – | – | –
2 | CCCCc1nc2cc(/C=C/C(=O)NO)ccc2n1CCN(CC)CC | 30.1 µM | 5.54 µM | 0.658 µM | 0.855 µM | 0.789 µM | 1.23 µM | 0.52 µM | 16.2 µM | 1.4 µM | 1.28 µM | 0.489 µM | 0.104 µM | 0.194 µM | 0.24 µM | 0.178 µM | 0.242 µM | 0.0802 µM | 0.327 µM | 0.13 µM | 0.291 µM
3 | Cc1[nH]nc(C(=O)Nc2n[nH]c3ccccc23)c1[N+](=O)[O-] | > 100 µM | > 100 µM | > 100 µM | > 100 µM | > 100 µM | > 100 µM | > 100 µM | > 100 µM | > 100 µM | > 100 µM | > 100 µM | > 100 µM | > 76.6 µM | > 100 µM | > 100 µM | > 100 µM | 39.4 µM | > 100 µM | > 100 µM | > 100 µM
4 | C=C1CO[C@@H]2C[C@@H]1CCC1(C)OC1CC/C(C)=C/CC[C@@]2(C)O (stereo partly drawn) | 67.8 µM | > 100 µM | > 100 µM | 42.2 µM | 64.1 µM | > 84 µM | > 76.9 µM | 36.9 µM | > 100 µM | 21.4 µM | 25.6 µM | 39.8 µM | > 79.1 µM | 18.5 µM | 23.6 µM | 43.1 µM | 30.5 µM | 18.5 µM | > 100 µM | 7.55 µM
5 | CC(C)[C@@H](CS(=O)(=O)C(C)C)N1C(=O)[C@@](C)(CC(=O)O)C[C@H](c2cccc(Cl)c2)[C@H]1c1ccc(Cl)cc1 | > 70.5 µM | > 100 µM | 16.8 µM | 45.5 µM | 67 µM | 37.7 µM | 51.5 µM | > 69.3 µM | > 100 µM | 21 µM | 19.8 µM | 13.5 µM | 0.537 µM | 15.3 µM | 19.5 µM | 16.7 µM | 17.8 µM | 5.75 µM | 25.7 µM | 0.485 µM
6 | CCOC(=O)c1cnc2c(cnn2CC)c1NN=C(C)C | > 100 µM | > 100 µM | > 100 µM | > 100 µM | 70 µM | > 100 µM | > 100 µM | > 100 µM | > 100 µM | > 100 µM | 38.2 µM | 55.1 µM | 28.1 µM | 78.2 µM | 11.4 µM | > 100 µM | 73.2 µM | 37.5 µM | 26.6 µM | 35.3 µM
7 | C=C(C(=O)OC)[C@@H]1C[C@@H](O)[C@]2(C)CC/C=C(\C)CCC[C@H](C)[C@H](O)C1O2 | > 100 µM | > 100 µM | > 100 µM | > 100 µM | > 100 µM | > 100 µM | > 100 µM | > 100 µM | > 100 µM | > 100 µM | 77.9 µM | > 100 µM | 65.9 µM | 37.8 µM | 53.3 µM | 73 µM | 26.1 µM | 30.9 µM | > 100 µM | 32.8 µM
8 | COc1ccc2c(c1)C(=O)c1c-2n(CCCCl)c(=O)c2cc(N(C)C)ccc12 | > 100 µM | > 100 µM | > 100 µM | > 100 µM | 90.7 µM | > 100 µM | > 100 µM | > 100 µM | > 100 µM | > 100 µM | 49.8 µM | 42.5 µM | 95.6 µM | 81.8 µM | 25.5 µM | > 100 µM | 18.9 µM | 34.5 µM | > 100 µM | 99.1 µM
9 | c1ccc2c(c1)ccc1c3ccccc3ccc21 | > 50 µM | > 50 µM | > 50 µM | > 50 µM | > 50 µM | > 50 µM | > 50 µM | > 50 µM | > 50 µM | > 50 µM | > 50 µM | > 50 µM | > 50 µM | > 50 µM | > 50 µM | > 50 µM | > 50 µM | > 50 µM | > 50 µM | > 50 µM
10 | CC1(C)CC[C@]2(C(=O)O)CC[C@]3(C)[C@H](CC[C@@H]4[C@@]5(C)CCC(=O)C(C)(C)[C@@H]5CC[C@]43C)[C@H]2[C@H]1OC(=O)C(F)(F)F | 24.8 µM | 30.1 µM | 30.9 µM | 26.9 µM | 23.8 µM | 22.8 µM | 29.1 µM | 17.9 µM | 30.7 µM | 18.9 µM | 11.5 µM | 12.9 µM | 15.7 µM | 10.6 µM | 11.1 µM | 10.7 µM | 12.6 µM | 3.98 µM | 15.7 µM | 5.91 µM
11 | CN1CCN(c2cc(Nc3cc(C4CC4)[nH]n3)nc(Nc3ccc(CC(=O)NCc4cccc(F)c4)cc3)n2)CC1 | 14.4 µM | 30.1 µM | 0.967 µM | 2.63 µM | 1.71 µM | 12.1 µM | 7.08 µM | 22.8 µM | 15.8 µM | 1.48 µM | 0.756 µM | 2.18 µM | 0.143 µM | 0.44 µM | 0.404 µM | 1.15 µM | 1.53 µM | 0.616 µM | 0.432 µM | 0.219 µM
12 | COc1ccc(Nc2c[nH]c(=O)[nH]c2=O)cc1 | > 100 µM | > 100 µM | > 100 µM | > 100 µM | > 100 µM | > 100 µM | > 100 µM | > 100 µM | – | > 100 µM | – | – | – | – | – | – | – | – | – | –
13 | Cc1ccccc1NC(=O)c1sc2nc3c(cc2c1N)C(=O)CCC3 | > 100 µM | > 100 µM | 4.65 µM | 1.98 µM | 5.65 µM | > 100 µM | 3.5 µM | > 100 µM | > 100 µM | > 100 µM | 5.53 µM | 4.89 µM | 1.16 µM | 0.331 µM | 1.62 µM | 3.21 µM | 0.896 µM | 3.13 µM | 6.82 µM | 6.71 µM
14 | Oc1ccc(SCc2ccc(NCc3ccccc3)cc2)cc1 | 64.6 µM | > 100 µM | 88 µM | > 100 µM | 78.8 µM | 94.7 µM | 98.2 µM | 71.9 µM | 69.3 µM | 73.9 µM | – | – | – | – | – | – | – | – | – | –
15 | COc1ccc(-c2[nH]ncc2-c2cc(OC)c(OC)c(OC)c2)cc1 | > 81.8 µM | > 33.2 µM | < 0.0127 µM | < 0.01 µM | 17.8 µM | 19.2 µM | < 0.01 µM | 32.5 µM | > 47.7 µM | 44.4 µM | – | < 0.0124 µM | < 0.01 µM | < 0.01 µM | < 0.01 µM | 0.0147 µM | < 0.01 µM | < 0.01 µM | < 0.018 µM | < 0.01 µM
16 | CN(C)CCCC(=O)Nc1ccc(Cn2nnc3c2C(=O)c2nnn(Cc4ccc(NC(=O)CCCN(C)C)cc4)c2C3=O)cc1 | 4 µM | 29.3 µM | 45.3 µM | 3.26 µM | 21.6 µM | 5.22 µM | 5.06 µM | 43.4 µM | 51.4 µM | 5.62 µM | 1.96 µM | 5.25 µM | 16 µM | 1.82 µM | 5 µM | 2.43 µM | 2.15 µM | 4.75 µM | 19 µM | 2.22 µM
17 | CC(C)CC(=O)CC(O)C(Cl)(Cl)Cl (stereo not drawn) | > 100 µM | > 100 µM | > 100 µM | > 100 µM | > 100 µM | > 100 µM | > 100 µM | > 100 µM | > 100 µM | > 100 µM | – | – | – | – | – | – | – | – | – | –
18 | COC(=O)[C@]12CC[C@@H](C)[C@H](C)[C@@H]1C1=CC[C@@H]3[C@@]4(C)C=C(O)C(=O)C(C)=C4CC[C@@]3(C)[C@]1(C)CC2 | 50.4 µM | 39.4 µM | 34.1 µM | 28.2 µM | 27.9 µM | 23.3 µM | 14.7 µM | 18.4 µM | 38.6 µM | 27.4 µM | 19.2 µM | 16.9 µM | 19.5 µM | 13.8 µM | 12.1 µM | 8.6 µM | 3.92 µM | 4.16 µM | 17.8 µM | 13 µM
19 | CCc1nc(N)nc(N)c1-c1ccc(Cl)c(N=NN(C)C)c1 | > 100 µM | > 100 µM | > 100 µM | > 92.1 µM | > 100 µM | 62.9 µM | 99.6 µM | > 100 µM | > 100 µM | > 100 µM | – | – | – | – | – | – | – | – | – | –
20 | COc1ccc(-c2nn(-c3cccc(NC(=O)Nc4cccc(C(F)(F)F)c4)c3)cc2-c2ccncc2)cc1Cl | > 100 µM | 10.4 µM | 5.81 µM | 4.67 µM | 6.37 µM | > 100 µM | 6.07 µM | 8.54 µM | > 100 µM | > 100 µM | 2.4 µM | 1.7 µM | 1.61 µM | 1.45 µM | 1.33 µM | 5.32 µM | 1.6 µM | 0.986 µM | 3.73 µM | 3.02 µM
